Molecules are shown by their SMILES.

Data set [1] deals with T1, CB1 receptors (Rattus norvegicus, UniProt P20272). The experiment in a line: Hypothermia test in vivo, compound alone (rectal temperature). The note with it: i.p., doses 0.1, 0.5, 1.0, 3.0, 6.0 mg/kg, versus physiological solution (38° C.). Further details: from tissue; host or cells: whole animal (rat), central CB1 receptors of the hypothalamus. Here is the method:
The test was carried out with the compound of the Example 3.1c. Aqueous samples were used wherein the compound of the Example 3.1c was dispersed in water with three drops of Tween 80. Following the above procedure, treatments were carried out with doses (mg compound/kg of body weight) respectively of 0.1; 0.5; 1.0; 3.0; 6.0.

Data set [2] concerns the target T2, CB2 receptors (Rattus norvegicus, UniProt Q9QZN9).
T2 construct: the brain in toto (cerebellum excluded) and the spleen were rapidely dissected; from tissue; host or cells: rat spleen membranes
T2 sequence (Q9QZN9 1-360): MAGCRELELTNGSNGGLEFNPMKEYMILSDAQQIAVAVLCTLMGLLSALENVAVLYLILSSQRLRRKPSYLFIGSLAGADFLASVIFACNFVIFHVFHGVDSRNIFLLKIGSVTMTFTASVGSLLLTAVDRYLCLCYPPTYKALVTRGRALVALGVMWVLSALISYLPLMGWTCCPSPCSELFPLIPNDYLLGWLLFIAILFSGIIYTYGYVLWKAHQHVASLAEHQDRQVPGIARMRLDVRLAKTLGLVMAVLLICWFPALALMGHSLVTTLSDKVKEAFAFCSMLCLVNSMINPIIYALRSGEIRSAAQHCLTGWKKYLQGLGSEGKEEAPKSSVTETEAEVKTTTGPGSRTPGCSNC
The experiment in a line: Radioreceptor binding, [3H]-CP-55,940 displacement, rat spleen membranes. As to conditions: 1 nM [3H]-CP55,940. An excerpt: (§1) The receptorial binding technique allows indeed to establish if and with what affinity and specificity a determined compound binds itself to a particular receptor. To evaluate the affinity of a determined compound towards a particular receptor, a particular preparation of the tissue wherein the receptors are present is used and the tested compound is made to compete with another compound, treated so as to make it radioactive and of which the affinity for the receptor is known. […] The reading of the radioactivity present in the receptor-compound complex allows furthermore to precisely calculate the compound amount bound to the receptor. By this method it is therefore possible to rapidely identify the affinity of a new compound towards a specific receptor and thus to make predictions on its pharmacological activity. By repeating the same experimental scheme it is possible to evaluate the affinity of the compound towards other kinds of receptors and thus establish the specificity degree.
(§2) Food and water were available ad libitum.
(§3) The animals were sacrificed by cervical dislocation, the brain in toto (cerebellum excluded) and the spleen were rapidely dissected and maintained in ice.
(§4) The tissue was homogenized in 15 volumes (weight/volume) of TME buffer (50 mM Tris, 1 mM EDTA e 3 mM MgCl2, pH 7.4) by an Ultra-Turrax and centrifuged for 10 minutes at 1086×g in a centrifuge cooled at 4° C. The resulting supernatant was centrifuged at 45,000×g for 30 min at 4° C. by using a Beckman SW41 rotor and the final pellet was resuspended in 50 volumes of TME.
(§5) The obtained membranes (50-80 μg of proteins) were incubated in the presence of 1 nM di [^3H]-CP55,940 for 1 h at 30° C. in a final volume of 0.5 ml of TME buffer containing 5 mg/ml of bovine serum albumin (BSA). The non specific binding was measured in the presence of CP55,940 at the 1 μM concentration. […]
(§6) The radioactivity present in the filters was measured by a scintillator spectrophotometer (Tricarb 2100, Packard, Meridien, USA). […]

Data set [3] addresses T1, CB1 receptors. The data set can be described thus: Radioreceptor binding, [3H]-CP-55,940 displacement, rat brain membranes. Further details: from tissue; host or cells: whole animal (rat), central CB1 receptors of the hypothalamus. As to conditions: 1 nM [3H]-CP55,940.
Excerpt: as §1, §2, §3, §4, §5, §6

T1 sequence (P20272 whole entry): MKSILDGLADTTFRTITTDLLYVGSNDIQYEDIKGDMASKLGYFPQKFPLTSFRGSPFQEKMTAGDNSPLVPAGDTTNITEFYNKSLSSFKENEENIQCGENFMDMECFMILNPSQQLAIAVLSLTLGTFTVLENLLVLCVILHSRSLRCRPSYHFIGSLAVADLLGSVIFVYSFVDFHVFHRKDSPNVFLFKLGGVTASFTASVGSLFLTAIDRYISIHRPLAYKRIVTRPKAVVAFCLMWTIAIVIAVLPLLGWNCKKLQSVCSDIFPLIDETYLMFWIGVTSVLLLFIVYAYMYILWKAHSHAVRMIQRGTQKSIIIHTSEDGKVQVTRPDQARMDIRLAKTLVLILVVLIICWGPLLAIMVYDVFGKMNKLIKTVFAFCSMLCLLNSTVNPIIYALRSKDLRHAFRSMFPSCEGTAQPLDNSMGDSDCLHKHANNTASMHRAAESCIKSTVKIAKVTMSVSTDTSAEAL

Take `Cc1c(C(=O)NN2CCCCCC2)nn(-c2ccc(Cl)cc2Cl)c1-c1ccc(Cl)s1` [Example 3.1c, N-homopiperidinyl-5-(5-Chloro-thiophen-2-yl)-1-(2′,4′-dichloro-phenyl)-4-methyl-1H-pyrazol-3-carboxamide]: the “effect of the compound as such on body temperature” value in data set [1] is on record as “In none of the examined cases there was a reduction of the body temperature”. Further, the Ki in data set [2] came out at 270 ± 5 nM; in data set [3], 21 ± 1 nM.
For the molecule `Cc1c(C(=O)Nc2ccccc2)nn(-c2ccc(Cl)cc2Cl)c1-c1ccc(Cl)s1`, the melting point lay within 175 to 176 °C.

What is called Ki is the dissociation constant of the complex between target and ligand, obtained from inhibition or displacement. A word on the melting point: it is the temperature, or range, at which the solid turns liquid.

For the origin of these results see patent publication US8227620B2, “Pharmaceutical compounds” (Neuroscienze Pharmaness S.C. A.R.L., priority 2004, dated 2012).
